In patent publication US12371428B2 (Exelixis, Inc., priority 2019, dated 2025):

What was measured:
[1] = target: KDR (phospho-KDR, VEGF165-stimulated HUVEC cells) (Homo sapiens (Human), UniProt P35968); assay: KDR autophosphorylation ELISA in HUVEC cells (Example G); assay type: cell-based; conditions: cellular activity; KDR autophosphorylation ELISA in HUVEC cells
Procedure, shortened: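 IC50 values derive from nonlinear curve fitting of phospho-KDR levels measured by ELISA and interpolated from a phosphoprotein standard. Beforehand, starved HUVECs received compound (0.3% DMSO vehicle) for one hour and were activated with VEGF165 at 100 ng/mL for 5 min.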

[2] = target: Met (phospho-Met, HGF-stimulated PC-3 prostate cancer cells) (Homo sapiens (Human), UniProt P08581); assay: Met autophosphorylation ELISA in PC-3 cells (Example F); assay type: cell-based; conditions: cellular activity; Met autophosphorylation ELISA in PC-3 cells; read-out: c-Met IC50
Procedure, shortened: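 Serum-starved (3 h) PC-3 cells were treated 1 h with compounds (8-point curve, 0.3% DMSO), then stimulated with 100 ng/mL human HGF for 10 min. Lysate phospho-Met (panTyr) was measured by sandwich ELISA, normalised to DMSO and reference-inhibitor controls. IC50 came from 4-parameter logistic fit.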

[3] = target: Human MER (residues 528-999) (Homo sapiens (Human), UniProt Q12866); assay: Human Mer kinase assay, HTRF KinEase (Example C-2); assay type: biochemical; conditions: protocol of Example C-2 (other compounds)
Procedure, shortened: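 Recombinant MER 528-999 (1 ng/well) in buffer with 5 mM MgCl2 and 1 mM DTT was reacted with biotinylated peptide and ATP at Km (40 μM) for 60 min at room temperature. EDTA stop with SA-XL665 and Eu3+ TK antibody, then 665/620 nm HTRF read; IC50 from 4-parameter fit.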

[4] = target: Human KDR (residues 790-1356) (Homo sapiens (Human), UniProt P35968); assay: Human KDR kinase assay, HTRF KinEase (Example B-2); assay type: biochemical; conditions: protocol of Example B-2 (other compounds)
Procedure, shortened: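 Human KDR residues 790-1356 (0.1 ng/well) in buffer with 5 mM MgCl2, 1 mM MnCl2, 1 mM DTT, biotinylated peptide substrate, ATP at Km (4.0 μM), 3% DMSO, 10 compound concentrations; 40 min, room temperature. EDTA stop, streptavidin-XL665/Eu-TK antibody HTRF read 665/620 nm; 4-parameter IC50.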

Sequence of Met (phospho-Met, HGF-stimulated PC-3 prostate cancer cells) (P08581 25-1390): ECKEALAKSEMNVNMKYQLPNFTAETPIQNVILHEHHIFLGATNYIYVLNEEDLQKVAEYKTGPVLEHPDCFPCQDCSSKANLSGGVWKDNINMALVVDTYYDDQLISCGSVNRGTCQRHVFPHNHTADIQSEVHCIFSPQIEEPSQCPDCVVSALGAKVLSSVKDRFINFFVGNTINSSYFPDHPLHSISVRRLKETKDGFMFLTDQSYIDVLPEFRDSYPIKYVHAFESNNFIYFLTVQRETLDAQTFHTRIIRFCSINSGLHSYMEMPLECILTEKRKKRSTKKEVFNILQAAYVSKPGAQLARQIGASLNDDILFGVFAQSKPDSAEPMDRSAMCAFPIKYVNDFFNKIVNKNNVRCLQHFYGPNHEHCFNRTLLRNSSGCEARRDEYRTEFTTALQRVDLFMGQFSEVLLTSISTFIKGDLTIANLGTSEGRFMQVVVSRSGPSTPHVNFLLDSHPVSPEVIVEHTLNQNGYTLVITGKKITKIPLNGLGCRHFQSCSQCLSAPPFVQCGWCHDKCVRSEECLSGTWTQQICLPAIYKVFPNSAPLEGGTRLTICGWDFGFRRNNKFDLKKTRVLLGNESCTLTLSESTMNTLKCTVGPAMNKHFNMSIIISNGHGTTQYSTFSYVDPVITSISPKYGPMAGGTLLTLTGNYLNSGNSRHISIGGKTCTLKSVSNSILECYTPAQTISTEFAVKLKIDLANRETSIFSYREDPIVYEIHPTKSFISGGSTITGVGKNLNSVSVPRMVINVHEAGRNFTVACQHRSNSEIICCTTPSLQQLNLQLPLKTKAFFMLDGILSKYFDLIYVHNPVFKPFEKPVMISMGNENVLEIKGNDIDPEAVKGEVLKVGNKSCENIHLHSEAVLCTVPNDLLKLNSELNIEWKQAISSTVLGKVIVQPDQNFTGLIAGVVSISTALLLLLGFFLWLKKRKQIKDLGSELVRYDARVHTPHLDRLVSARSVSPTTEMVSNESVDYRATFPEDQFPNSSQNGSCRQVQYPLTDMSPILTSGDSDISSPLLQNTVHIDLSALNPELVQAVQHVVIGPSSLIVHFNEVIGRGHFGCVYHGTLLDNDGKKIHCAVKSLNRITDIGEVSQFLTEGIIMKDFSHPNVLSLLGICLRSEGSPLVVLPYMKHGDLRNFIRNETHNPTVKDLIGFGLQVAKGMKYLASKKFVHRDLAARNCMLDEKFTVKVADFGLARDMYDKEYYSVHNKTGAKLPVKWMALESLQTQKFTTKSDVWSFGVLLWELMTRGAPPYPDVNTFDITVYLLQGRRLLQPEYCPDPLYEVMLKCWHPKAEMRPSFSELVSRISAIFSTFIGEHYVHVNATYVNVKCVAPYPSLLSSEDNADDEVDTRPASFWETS
Sequence of KDR (phospho-KDR, VEGF165-stimulated HUVEC cells) (P35968 20-1356): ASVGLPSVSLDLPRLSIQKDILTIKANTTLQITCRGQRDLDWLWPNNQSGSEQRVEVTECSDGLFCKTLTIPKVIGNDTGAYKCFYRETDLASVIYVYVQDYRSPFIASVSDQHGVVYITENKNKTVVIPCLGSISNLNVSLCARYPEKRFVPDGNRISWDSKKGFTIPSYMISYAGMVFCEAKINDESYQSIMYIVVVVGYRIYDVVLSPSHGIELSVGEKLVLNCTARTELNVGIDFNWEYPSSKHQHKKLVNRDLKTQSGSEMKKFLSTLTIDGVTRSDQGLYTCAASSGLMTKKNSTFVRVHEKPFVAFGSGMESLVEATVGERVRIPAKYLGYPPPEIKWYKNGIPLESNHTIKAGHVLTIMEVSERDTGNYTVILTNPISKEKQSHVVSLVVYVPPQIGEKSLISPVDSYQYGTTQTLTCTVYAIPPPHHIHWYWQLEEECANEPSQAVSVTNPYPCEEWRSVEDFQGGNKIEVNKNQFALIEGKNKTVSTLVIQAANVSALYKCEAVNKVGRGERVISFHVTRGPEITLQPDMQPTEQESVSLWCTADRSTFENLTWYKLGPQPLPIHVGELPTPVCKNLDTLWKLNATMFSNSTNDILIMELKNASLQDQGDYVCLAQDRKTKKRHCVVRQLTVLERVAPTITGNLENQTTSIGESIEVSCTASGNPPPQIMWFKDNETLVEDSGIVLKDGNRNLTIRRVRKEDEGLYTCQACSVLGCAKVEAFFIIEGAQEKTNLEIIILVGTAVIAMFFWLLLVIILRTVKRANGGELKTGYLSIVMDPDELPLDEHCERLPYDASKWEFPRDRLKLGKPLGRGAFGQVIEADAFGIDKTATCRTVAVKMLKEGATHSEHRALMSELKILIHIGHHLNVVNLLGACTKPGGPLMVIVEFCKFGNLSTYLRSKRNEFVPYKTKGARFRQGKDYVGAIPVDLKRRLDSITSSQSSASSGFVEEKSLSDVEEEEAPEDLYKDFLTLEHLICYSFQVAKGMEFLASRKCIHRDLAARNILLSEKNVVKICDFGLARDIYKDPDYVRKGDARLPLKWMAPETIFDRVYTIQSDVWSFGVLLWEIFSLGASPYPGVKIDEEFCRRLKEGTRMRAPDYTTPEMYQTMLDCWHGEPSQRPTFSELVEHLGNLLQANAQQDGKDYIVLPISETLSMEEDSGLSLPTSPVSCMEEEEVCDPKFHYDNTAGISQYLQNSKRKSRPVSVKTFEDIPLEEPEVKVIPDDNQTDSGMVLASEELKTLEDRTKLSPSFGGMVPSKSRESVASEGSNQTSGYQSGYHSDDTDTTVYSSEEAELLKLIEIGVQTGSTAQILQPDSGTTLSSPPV
Sequence of Human MER (residues 528-999) (Q12866 528-999): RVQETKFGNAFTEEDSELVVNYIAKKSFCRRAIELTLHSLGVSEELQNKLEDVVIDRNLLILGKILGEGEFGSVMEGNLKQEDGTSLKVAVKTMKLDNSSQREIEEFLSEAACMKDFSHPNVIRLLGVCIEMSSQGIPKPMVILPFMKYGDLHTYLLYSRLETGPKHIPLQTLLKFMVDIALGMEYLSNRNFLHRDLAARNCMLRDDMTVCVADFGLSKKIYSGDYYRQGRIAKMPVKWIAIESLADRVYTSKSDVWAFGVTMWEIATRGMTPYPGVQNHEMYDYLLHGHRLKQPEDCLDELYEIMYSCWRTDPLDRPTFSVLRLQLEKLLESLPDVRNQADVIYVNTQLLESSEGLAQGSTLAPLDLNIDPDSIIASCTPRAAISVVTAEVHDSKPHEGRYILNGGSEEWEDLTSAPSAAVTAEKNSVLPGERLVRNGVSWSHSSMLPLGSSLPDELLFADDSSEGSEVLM
Sequence of Human KDR (residues 790-1356) (P35968 790-1356): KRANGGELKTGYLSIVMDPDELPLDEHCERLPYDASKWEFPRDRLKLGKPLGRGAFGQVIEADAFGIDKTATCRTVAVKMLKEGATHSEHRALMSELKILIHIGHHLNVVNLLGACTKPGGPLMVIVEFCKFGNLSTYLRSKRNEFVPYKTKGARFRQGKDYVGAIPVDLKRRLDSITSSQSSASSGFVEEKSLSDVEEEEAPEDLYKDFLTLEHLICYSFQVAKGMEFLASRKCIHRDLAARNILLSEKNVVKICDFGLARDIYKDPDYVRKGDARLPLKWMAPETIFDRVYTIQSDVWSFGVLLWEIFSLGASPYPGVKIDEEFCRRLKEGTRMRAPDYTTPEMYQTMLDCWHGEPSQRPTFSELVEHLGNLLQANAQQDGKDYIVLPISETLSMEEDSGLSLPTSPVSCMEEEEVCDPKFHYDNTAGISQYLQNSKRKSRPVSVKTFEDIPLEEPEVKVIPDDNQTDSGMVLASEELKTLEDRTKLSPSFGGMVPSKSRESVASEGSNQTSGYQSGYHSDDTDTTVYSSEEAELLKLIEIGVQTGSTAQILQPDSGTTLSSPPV

SMILES	IC50 [1] [nM]	IC50 [2] [nM]	IC50 [3] [nM]	IC50 [4] [nM]
COCCOc1nc2c(Oc3ccc(NC(=O)c4cnc(C)c(-c5ccc(F)cc5)c4O)cc3)ccnc2cc1C [Compound 437, 5-(4-fluorophenyl)-4-hydroxy-N-[4-[[6-(2-methoxyethoxy)-7-methyl-1,5-naphthyridin-4-yl]oxy]phenyl]-6-methylpyridine-3-carboxamide]	< 100	< 100	< 100	< 100
Cc1cc2nccc(Oc3ccc(NC(=O)c4cnc(C)c(-c5ccc(F)cc5)c4O)cc3F)c2nc1OCCCN1CCOCC1 [Compound 438, N-[3-fluoro-4-[[7-methyl-6-(3-morpholin-4-ylpropoxy)-1,5-naphthyridin-4-yl]oxy]phenyl]-5-(4-fluorophenyl)-4-hydroxy-6-methylpyridine-3-carboxamide]	< 100	< 100	< 100	< 100
COc1cc2nccc(Oc3ccc(NC(=O)c4cn(C5CC5)c(C)c(-c5ccc(F)cc5C)c4=O)cc3F)c2nc1OC [Compound 439, 1-cyclopropyl-N-[4-[(6,7-dimethoxy-1,5-naphthyridin-4-yl)oxy]-3-fluorophenyl]-5-(4-fluoro-2-methylphenyl)-6-methyl-4-oxopyridine-3-carboxamide]	> 300	< 100	< 100	> 300
COc1cc2nccc(Oc3ccc(NC(=O)c4cn(C5CC5)c(C)c(-c5ccc(F)cc5C)c4=O)cc3)c2nc1OC [Compound 440, 1-cyclopropyl-N-[4-[(6,7-dimethoxy-1,5-naphthyridin-4-yl)oxy]phenyl]-5-(4-fluoro-2-methylphenyl)-6-methyl-4-oxopyridine-3-carboxamide]	> 300	< 100	< 100	> 300
COc1ccc2nccc(Oc3ccc(NC(=O)c4cn(C5CC5)c(C)c(-c5ccc(F)cc5C)c4=O)cc3F)c2n1 [Compound 441, 1-cyclopropyl-N-[3-fluoro-4-[(6-methoxy-1,5-naphthyridin-4-yl)oxy]phenyl]-5-(4-fluoro-2-methylphenyl)-6-methyl-4-oxopyridine-3-carboxamide]	> 300	< 100	< 100	> 300
COc1cc2nccc(Oc3ccc(NC(=O)c4c(C)nc(OC)c(-c5ccc(F)cc5)c4O)cc3F)c2nc1OC [Compound 442, N-[4-[(6,7-dimethoxy-1,5-naphthyridin-4-yl)oxy]-3-fluorophenyl]-5-(4-fluorophenyl)-4-hydroxy-6-methoxy-2-methylpyridine-3-carboxamide]	< 100	< 100	< 100	< 100
COc1cc2nccc(Oc3ccc(NC(=O)c4c(C)nc(O)c(-c5ccc(F)cc5)c4O)cc3F)c2nc1OC [Compound 443, N-[4-[(6,7-dimethoxy-1,5-naphthyridin-4-yl)oxy]-3-fluorophenyl]-5-(4-fluorophenyl)-4,6-dihydroxy-2-methylpyridine-3-carboxamide]	> 300	100 to 300	< 100	< 100
